Counter-ions that a name gives are not always drawn.
Legend:
[1] = test system: dopamine transporter protein over the norepinephrine transporter protein; conditions: ratio of Ki values; cited from earlier work

## CN1Cc2c(ccc3ccoc23)C(c2ccc(F)cc2)C1 (stereo not shown) (as salt: hydrochloride)
other
  melting point: 242 to 257 °C

## CN1Cc2c(ccc3ccoc23)C(c2cc(F)cc(F)c2)C1 (stereo not shown) (as salt: hydrochloride)
other
  melting point: 233 to 236 °C

## CN1Cc2c(ccc3ccoc23)C(c2ccccc2)C1 (single isomer, unassigned)
other
  melting point: 81 to 83 °C

## Cc1ccc(C2CN(C)Cc3c2ccc2ccoc32)cc1 (single isomer, unassigned) (as salt: hydrochloride)
other
  melting point: 240 to 246 °C

## CN1Cc2c(ccc3ccoc23)C(c2ccccc2)C1 (single isomer, unassigned) (as salt: maleate)
other
  melting point: 165 to 168 °C

## Cc1ccc(C2CN(C)Cc3c2ccc2ccoc32)cc1 (single isomer, unassigned) (as salt: maleate)
other
  melting point: 190 to 191 °C

## COC(=O)C(c1ccccc1)C1CCCCN1 (stereo not shown) [Methylphenidate, methylphenidate]
[1]
  DAT/NET Ki ratio: 0.1

Reference: patent US7084152B2, “4-phenyl substituted tetrahydroisoquinolines therapeutic use thereof” (AMR Technology, Inc., priority 2000, dated 2006)
